Results as given in ChEMBL document CHEMBL5247625, “Discovery and characterization of novel potent BCR-ABL degraders by conjugating allosteric inhibitor” (Eur J Med Chem, 2022).

Experiments:
[1] = molecular target: T1, Protein cereblon/Tyrosine-protein kinase ABL1/Breakpoint cluster region protein (Homo sapiens, UniProt P00519+P11274+Q96SW2); assay: Protac activity at CRBN/BCR-ABL in human K562 cells assessed as increase in BCR-ABL degradation at 50 nM by Western blotting analysis; assay type: cell-based
K562 = assay: cells; conditions: Homo sapiens, K562, 48 h
Description: Antiproliferative activity against human K562 cells assessed as inhibition of cell growth incubated for 2 days by CCK8 assay

[2] = molecular target: T1, Protein cereblon/Tyrosine-protein kinase ABL1/Breakpoint cluster region protein; assay: Protac activity at CRBN/BCR-ABL in human K562 cells assessed as increase in BCR-ABL degradation at 5 nM by Western blotting analysis; assay type: cell-based
[3] = molecular target: T1, Protein cereblon/Tyrosine-protein kinase ABL1/Breakpoint cluster region protein; assay: Protac activity at CRBN/BCR-ABL in human K562 cells assessed as increase in BCR-ABL degradation at 100 nM by Western blotting analysis; assay type: cell-based

T1 sequence (P00519 whole entry, looked up): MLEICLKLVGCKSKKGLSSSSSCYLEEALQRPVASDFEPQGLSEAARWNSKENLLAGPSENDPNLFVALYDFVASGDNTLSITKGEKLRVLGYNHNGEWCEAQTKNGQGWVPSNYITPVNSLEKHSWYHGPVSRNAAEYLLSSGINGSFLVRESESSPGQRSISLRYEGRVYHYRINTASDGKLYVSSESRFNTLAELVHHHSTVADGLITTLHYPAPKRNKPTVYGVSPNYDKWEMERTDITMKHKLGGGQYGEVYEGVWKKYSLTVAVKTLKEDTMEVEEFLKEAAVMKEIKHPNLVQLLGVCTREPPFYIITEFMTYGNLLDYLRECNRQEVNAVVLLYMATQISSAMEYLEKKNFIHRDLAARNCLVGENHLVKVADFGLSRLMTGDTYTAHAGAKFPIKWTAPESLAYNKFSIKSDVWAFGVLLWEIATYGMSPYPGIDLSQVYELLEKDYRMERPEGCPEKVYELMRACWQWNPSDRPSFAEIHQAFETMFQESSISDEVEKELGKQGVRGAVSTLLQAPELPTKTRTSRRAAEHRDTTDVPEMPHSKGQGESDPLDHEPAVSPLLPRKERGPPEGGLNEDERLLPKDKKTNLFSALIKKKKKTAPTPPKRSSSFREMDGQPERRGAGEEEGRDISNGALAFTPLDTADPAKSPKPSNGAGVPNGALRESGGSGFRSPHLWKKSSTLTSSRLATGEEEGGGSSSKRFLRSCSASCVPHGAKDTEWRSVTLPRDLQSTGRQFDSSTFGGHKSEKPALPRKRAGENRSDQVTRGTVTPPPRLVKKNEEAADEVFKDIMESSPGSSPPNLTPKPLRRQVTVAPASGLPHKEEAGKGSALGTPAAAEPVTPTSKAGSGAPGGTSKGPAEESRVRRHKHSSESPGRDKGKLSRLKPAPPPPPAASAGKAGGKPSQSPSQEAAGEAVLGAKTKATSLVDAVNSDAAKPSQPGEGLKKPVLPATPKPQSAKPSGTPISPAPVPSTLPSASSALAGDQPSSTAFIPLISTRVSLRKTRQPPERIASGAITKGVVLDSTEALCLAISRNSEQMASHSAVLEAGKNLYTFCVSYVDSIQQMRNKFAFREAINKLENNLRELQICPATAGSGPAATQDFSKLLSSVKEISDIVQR
T1 sequence (P11274 whole entry, looked up): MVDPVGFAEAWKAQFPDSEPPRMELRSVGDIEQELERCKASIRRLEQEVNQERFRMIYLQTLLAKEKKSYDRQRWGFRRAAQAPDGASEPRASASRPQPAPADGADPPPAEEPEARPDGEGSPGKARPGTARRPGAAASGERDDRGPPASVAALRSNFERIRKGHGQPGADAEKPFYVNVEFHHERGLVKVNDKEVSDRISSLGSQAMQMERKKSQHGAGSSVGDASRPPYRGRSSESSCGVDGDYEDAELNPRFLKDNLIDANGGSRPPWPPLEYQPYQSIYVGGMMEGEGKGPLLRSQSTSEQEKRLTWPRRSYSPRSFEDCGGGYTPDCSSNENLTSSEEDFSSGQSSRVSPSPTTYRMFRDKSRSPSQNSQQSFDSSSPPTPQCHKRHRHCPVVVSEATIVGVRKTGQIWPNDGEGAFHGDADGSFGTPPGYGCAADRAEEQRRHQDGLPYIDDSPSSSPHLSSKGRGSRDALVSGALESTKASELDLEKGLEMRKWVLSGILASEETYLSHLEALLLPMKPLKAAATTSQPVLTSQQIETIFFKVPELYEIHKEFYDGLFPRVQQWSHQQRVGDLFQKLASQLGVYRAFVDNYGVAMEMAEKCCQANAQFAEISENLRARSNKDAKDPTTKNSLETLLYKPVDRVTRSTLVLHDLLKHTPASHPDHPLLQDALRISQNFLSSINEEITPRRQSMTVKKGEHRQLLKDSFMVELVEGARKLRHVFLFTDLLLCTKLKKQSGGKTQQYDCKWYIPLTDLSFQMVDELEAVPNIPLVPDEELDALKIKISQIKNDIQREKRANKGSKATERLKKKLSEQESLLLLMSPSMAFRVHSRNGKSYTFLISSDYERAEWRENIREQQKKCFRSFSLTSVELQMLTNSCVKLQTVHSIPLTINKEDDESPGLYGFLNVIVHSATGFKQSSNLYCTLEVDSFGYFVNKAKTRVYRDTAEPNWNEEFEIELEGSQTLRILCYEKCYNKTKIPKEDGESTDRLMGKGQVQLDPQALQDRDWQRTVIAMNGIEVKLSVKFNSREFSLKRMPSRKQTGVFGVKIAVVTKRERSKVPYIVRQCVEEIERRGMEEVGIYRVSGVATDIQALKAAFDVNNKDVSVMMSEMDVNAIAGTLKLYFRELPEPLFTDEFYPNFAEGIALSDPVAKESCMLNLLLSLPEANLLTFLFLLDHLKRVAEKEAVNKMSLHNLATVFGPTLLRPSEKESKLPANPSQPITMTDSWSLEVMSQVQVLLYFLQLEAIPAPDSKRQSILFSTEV
T1 sequence (Q96SW2 whole entry, looked up): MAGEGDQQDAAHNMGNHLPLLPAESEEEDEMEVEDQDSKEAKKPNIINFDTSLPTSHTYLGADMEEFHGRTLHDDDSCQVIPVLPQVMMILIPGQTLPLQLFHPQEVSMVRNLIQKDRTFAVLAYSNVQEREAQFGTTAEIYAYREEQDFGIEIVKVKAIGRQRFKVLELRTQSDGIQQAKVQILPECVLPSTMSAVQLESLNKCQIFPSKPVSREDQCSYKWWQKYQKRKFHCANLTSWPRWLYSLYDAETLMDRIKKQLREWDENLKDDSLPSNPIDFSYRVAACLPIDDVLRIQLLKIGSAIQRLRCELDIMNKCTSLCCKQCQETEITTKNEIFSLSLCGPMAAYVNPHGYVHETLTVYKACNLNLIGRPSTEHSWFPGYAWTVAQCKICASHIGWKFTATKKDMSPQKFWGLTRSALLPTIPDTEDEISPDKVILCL

SMILES | Activity [1] | IC50 (K562) | Activity [2] | Activity [3]
O=C1CCC(N2Cc3c(SCCCCN4CCN(C5CCN(c6ncc(C(=O)Nc7ccc(OC(F)(F)Cl)cc7)cc6-c6ccn[nH]6)CC5)CC4)cccc3C2=O)C(=O)N1 (stereo not given) |  | 34.7 nM | 38.9% | 86.1%
O=C1CCC(N2Cc3c(OCCCC(=O)N4CCN(c5ncc(C(=O)Nc6ccc(OC(F)(F)Cl)cc6)cc5-c5ccn[nH]5)CC4)cccc3C2=O)C(=O)N1 (stereo not given) | -12.3% | 2120 nM |  | 
O=C1CCC(N2Cc3c(SCCCCCCNc4ncc(C(=O)Nc5ccc(OC(F)(F)Cl)cc5)cc4-c4ccn[nH]4)cccc3C2=O)C(=O)N1 (stereo not given) |  | 1960 nM | -5.46% | -8.74%
O=C1CCC(N2C(=O)c3cccc(NCCCCCC(=O)N4CCN(c5ncc(C(=O)Nc6ccc(OC(F)(F)Cl)cc6)cc5-c5ccn[nH]5)CC4)c3C2=O)C(=O)N1 (stereo not given) | 1.67% | 186 nM |  | 
Nc1cccc2c1C(=O)N(C1CCC(=O)NC1=O)C2=O (stereo not given) [POMALIDOMIDE] |  | > 10000 nM |  | 
O=C1CCC(N2Cc3c(SCCCCNc4ncc(C(=O)Nc5ccc(OC(F)(F)Cl)cc5)cc4-c4ccn[nH]4)cccc3C2=O)C(=O)N1 (stereo not given) |  | 928 nM | -3.56% | -9.23%
O=C1CCC(N2Cc3c(OCCCCN4CCN(c5ncc(C(=O)Nc6ccc(OC(F)(F)Cl)cc6)cc5-c5ccn[nH]5)CC4)cccc3C2=O)C(=O)N1 (stereo not given) |  | 67.2 nM | 30.6% | 89.2%
O=C1CCC(N2C(=O)c3cccc(NCCOCCOCCC(=O)N4CCN(c5ncc(C(=O)Nc6ccc(OC(F)(F)Cl)cc6)cc5-c5ccn[nH]5)CC4)c3C2=O)C(=O)N1 (stereo not given) | -1.5% | 1100 nM |  | 
O=C1CCC(N2Cc3c(SCCOCC(=O)N4CCN(c5ncc(C(=O)Nc6ccc(OC(F)(F)Cl)cc6)cc5-c5ccn[nH]5)CC4)cccc3C2=O)C(=O)N1 (stereo not given) | 10.2% | 154 nM |  | 
O=C1CCC(N2Cc3c(C#CCCCCN4CCN(c5ncc(C(=O)Nc6ccc(OC(F)(F)Cl)cc6)cc5-c5ccn[nH]5)CC4)cccc3C2=O)C(=O)N1 (stereo not given) |  | 40.9 nM | 32.8% | 89.1%
O=C1CCC(N2C(=O)c3cccc(SCCCC(=O)N4CCN(c5ncc(C(=O)Nc6ccc(OC(F)(F)Cl)cc6)cc5-c5ccn[nH]5)CC4)c3C2=O)C(=O)N1 (stereo not given) | 9.57% | 528 nM |  | 

Further lines, results first:

Activity [1] | IC50 (K562) | Activity [2] | Activity [3] | SMILES
-2.33% | 666 nM |  |  | O=C1CCC(N2Cc3c(NCCCC(=O)N4CCN(c5ncc(C(=O)Nc6ccc(OC(F)(F)Cl)cc6)cc5-c5ccn[nH]5)CC4)cccc3C2=O)C(=O)N1 (stereo not given)
9.65% | 278 nM |  |  | O=C1CCC(N2C(=O)c3cccc(C#CCCCC(=O)N4CCN(c5ncc(C(=O)Nc6ccc(OC(F)(F)Cl)cc6)cc5-c5ccn[nH]5)CC4)c3C2=O)C(=O)N1 (stereo not given)
 | 48.5 nM | 55.5% | 49.6% | O=C1CCC(N2Cc3c(SCCCN4CCN(C5CCN(c6ncc(C(=O)Nc7ccc(OC(F)(F)Cl)cc7)cc6-c6ccn[nH]6)CC5)CC4)cccc3C2=O)C(=O)N1 (stereo not given)
 | 47 nM | 21.9% | 64.4% | O=C1CCC(N2Cc3c(SCCCCCCCN4CCN(C5CCN(c6ncc(C(=O)Nc7ccc(OC(F)(F)Cl)cc7)cc6-c6ccn[nH]6)CC5)CC4)cccc3C2=O)C(=O)N1 (stereo not given)
1% | 380 nM |  |  | O=C1CCC(N2C(=O)c3cccc(NCCCCCCC(=O)N4CCN(c5ncc(C(=O)Nc6ccc(OC(F)(F)Cl)cc6)cc5-c5ccn[nH]5)CC4)c3C2=O)C(=O)N1 (stereo not given)
9.05% | 130 nM |  |  | O=C1CCC(N2C(=O)c3cccc(NCCCC(=O)N4CCN(c5ncc(C(=O)Nc6ccc(OC(F)(F)Cl)cc6)cc5-c5ccn[nH]5)CC4)c3C2=O)C(=O)N1 (stereo not given)
